# Molecular target: human plasma kallikrein (Homo sapiens, UniProt P03952)
# Assay: Kallikrein inhibition FLINT assay with quenched AMC peptide substrate Z-Gly-Pro-Arg-AMC (end point EP or kinetic KIN reads)
# Type: biochemical
# Settings: kinetic reads at 5 min intervals over 30 min; read-out: Kallikrein (KIN) IC50
# Summary of the method: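 Enzyme and compound were preincubated 30 min before adding 50 μM AMC substrate in pH 7.5 Tris/NaCl/CaCl2/BSA/CHAPS buffer. AMC release was read at 30 min endpoint or every 5 min.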
# Chain of human plasma kallikrein (P03952 391-638 limits assumed): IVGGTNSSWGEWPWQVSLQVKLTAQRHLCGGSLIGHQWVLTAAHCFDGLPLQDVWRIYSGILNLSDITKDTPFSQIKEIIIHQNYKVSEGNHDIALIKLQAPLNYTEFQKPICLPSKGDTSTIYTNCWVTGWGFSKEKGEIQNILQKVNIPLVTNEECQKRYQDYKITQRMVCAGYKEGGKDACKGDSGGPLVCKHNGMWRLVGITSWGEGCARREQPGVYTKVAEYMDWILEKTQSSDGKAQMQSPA
# Chain of human plasma kallikrein (P03952 20-390 partner limits assumed): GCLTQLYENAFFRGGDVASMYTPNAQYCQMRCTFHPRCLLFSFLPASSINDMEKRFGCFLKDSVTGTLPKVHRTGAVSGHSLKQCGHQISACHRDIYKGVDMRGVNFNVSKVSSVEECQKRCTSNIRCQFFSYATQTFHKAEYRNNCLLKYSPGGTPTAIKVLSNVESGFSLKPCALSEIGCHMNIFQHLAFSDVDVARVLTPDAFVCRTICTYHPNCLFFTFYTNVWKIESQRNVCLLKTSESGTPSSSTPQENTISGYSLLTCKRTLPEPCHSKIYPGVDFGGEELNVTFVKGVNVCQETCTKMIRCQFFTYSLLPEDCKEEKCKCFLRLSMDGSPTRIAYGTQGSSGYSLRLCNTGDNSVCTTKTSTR
row,IC50,Structure (SMILES)
1,0.0085 µM,Cn1nnc(F)c1-c1cnn([C@H](CCOC(F)F)c2ccc(-c3c(-n4cnnn4)ccc(Cl)c3F)c[n+]2[O-])c1 [Example P724]
2,0.185 µM,Cn1cnc(Cl)c1-c1cnn([C@H](CC2CC2)c2ccc(-c3c(-n4cnnn4)ccc(Cl)c3F)c[n+]2[O-])c1 [Example P848]
3,0.0705 µM,CC1CC1C[C@H](c1ccc(-c2c(-n3cnnn3)ccc(Cl)c2F)c[n+]1[O-])n1cc(-c2c(F)nnn2C)cn1 (stereo partly shown) [Example P768]
4,0.21 µM,Cn1nnc(-c2cnn([C@H](CCOC(F)F)c3ccc(-c4c(-n5cc(Cl)nn5)ccc(Cl)c4F)c[n+]3[O-])c2)c1F [Example P705]
5,0.0549 µM,"CCC(c1cc(OC)c(-c2cc(Cl)ccc2-n2cc(C(F)(F)F)nn2)c[n+]1[O-])n1cc(-c2ncnn2C)cn1 (single isomer, unassigned) [Example P922]"
6,0.78 µM,[O-][n+]1cc(-c2c(-n3cnnn3)ccc(Cl)c2F)ccc1C(CC1CC1)n1cc(-c2ccn[nH]2)cn1 (stereo not shown) [Example P467]
7,0.0098 µM,"COc1cc(C(Cc2ccn(C(F)F)n2)n2cc(-c3ccc(C(N)=O)c(F)c3)cn2)[n+]([O-])cc1-c1cc(Cl)ccc1C(C)=O (single isomer, unassigned) [Example Q77]"
8,0.307 µM,CC(C)n1ccc(C[C@@H](c2ccc(-c3c(-n4cnnn4)ccc(Cl)c3F)c[n+]2[O-])n2cc(-c3ccnc(C(F)(F)F)c3)cn2)n1 [Example P651]
9,0.0807 µM,Cn1nncc1-c1cnn([C@H](CCOC(F)F)c2ccc(-c3c(N)ccc(Cl)c3F)c[n+]2[O-])c1 [Example Q44]
10,0.0235 µM,N#Cc1cn(-c2ccc(Cl)c(F)c2-c2ccc([C@@H](CCOC(F)F)n3cc(-c4cnnn4C(F)F)cn3)[n+]([O-])c2)nn1 [Example P817]
11,0.0286 µM,[O-][n+]1cc(-c2c(-n3cnnn3)ccc(Cl)c2F)ccc1[C@@H](CCOC(F)F)n1cc(-c2c(Cl)nnn2C(F)F)cn1 [Example P714]
12,0.0576 µM,Cn1ccc(C[C@H](c2ccc(-c3cc(Cl)ccc3C#N)c[n+]2[O-])n2cc(-c3ccc(C(=O)O)cc3)cn2)n1 [Example Q47]
13,0.0579 µM,COCc1ccnn1CC(c1ccc(-c2c(-n3cnnn3)ccc(Cl)c2F)c[n+]1[O-])n1cc(-c2ccc(N)nc2F)cn1 (stereo not shown) [Example P489]
14,0.0325 µM,N#Cc1cc(-c2cnn(C(CN3CCCC3=O)c3ccc(-c4c(-n5cnnn5)ccc(Cl)c4F)c[n+]3[O-])c2)ccn1 (stereo not shown) [Example P461]
15,0.0023 µM,Cn1ccc(CC(c2ccc(-c3c(C(F)F)ccc(Cl)c3F)c[n+]2[O-])n2cc(-c3ccc(C(=O)O)cc3)cn2)n1 (stereo not shown) [Example Q49]
16,0.0221 µM,"[O-][n+]1cc(-c2c(-n3cnnn3)ccc(Cl)c2F)ccc1C(C(O)c1ccccc1)n1cc(-c2ccnn2C(F)F)cn1 (single isomer, unassigned) [Example P716]"
17,0.0778 µM,"NC(=O)c1ccc(-c2cnn(C(CC3CC3)c3ccc(-c4c(-n5cc(C(F)(F)F)nn5)ccc(Cl)c4F)c[n+]3[O-])c2)cc1F (single isomer, unassigned) [Example P889]"
18,0.0262 µM,Cn1ncc(O)c1-c1cnn(C(CCOC(F)F)c2ccc(-c3c(-n4cc(Cl)nn4)ccc(Cl)c3F)c[n+]2[O-])c1 (stereo not shown) [Example P747]
19,0.0027 µM,"NC(=O)c1ccc(-c2cnn(C(CCOC(F)F)c3ccc(-c4c(-n5cc(Cl)nn5)ccc(Cl)c4F)c[n+]3[O-])c2)cc1F (single isomer, unassigned) [Example P875]"
20,0.231 µM,N#Cc1cc(-c2cnn(C(CN3CCCC3=O)c3ccc(-c4c(-n5cnnn5)ccc(Cl)c4F)c[n+]3[O-])c2)cc[n+]1[O-] (stereo not shown) [Example P466]
21,0.0489 µM,Cn1nnc(F)c1-c1cnn(C(CC2CC2)c2ccc(-c3c(-n4cnnn4)ccc(Cl)c3F)c[n+]2[O-])c1 (stereo not shown) [Example P744]
22,0.104 µM,O=C(Cc1cnn(CC(c2ccc(-c3c(-n4cnnn4)ccc(Cl)c3F)c[n+]2[O-])n2cc(-c3ccnc(C(F)(F)F)c3)cn2)c1)N1CCCCC1 (stereo not shown) [Example P473]
23,0.188 µM,Cc1cc(-c2cnn(C(Cn3cc(F)cn3)c3ccc(-c4c(-n5cnnn5)ccc(Cl)c4F)c[n+]3[O-])c2)cc(C)[n+]1[O-] (stereo not shown) [Example P477]
24,0.0729 µM,"[O-][n+]1cc(-c2c(-n3cnnn3)ccc(Cl)c2F)ccc1C(Cn1cccn1)n1cc(-c2ccnc(C(F)(F)F)c2)cn1 (single isomer, unassigned) [Example P514]"
25,0.0627 µM,"Cn1ncnc1-c1cnn(C(CCOC(F)F)c2ccc(-c3c(-n4nncc4OC(F)F)ccc(Cl)c3F)c[n+]2[O-])c1 (single isomer, unassigned) [Example P800]"

# Second part, the molecule before the results:
row,Structure (SMILES),IC50
1,[O-][n+]1cc(-c2c(-n3cnnn3)ccc(Cl)c2F)ccc1C(CC1CC1)n1cc(-c2cnsc2)cn1 (stereo not shown) [Example P456],0.63 µM
2,O=C(O)c1ccc(-c2cnn(C(CC3CC3c3ccc(-c4ccccc4)cc3)c3ccc(-c4cc(Cl)ccc4-n4cnnn4)c[n+]3[O-])c2)cc1 (stereo not shown) [Example P61],0.0519 µM
3,O=C1c2ccccc2CN1CC(c1ccc(-c2cc(Cl)ccc2-n2cnnn2)c[n+]1[O-])n1cc(-c2ccncc2)cn1 (stereo not shown) [Example P293],0.0676 µM
4,"COCc1ccn(CC(c2ccc(-c3c(-n4cnnn4)ccc(Cl)c3F)c[n+]2[O-])n2cc(-c3ccnc(C(F)(F)F)c3)cn2)n1 (single isomer, unassigned) [Example P441]",0.0032 µM
5,[O-][n+]1ccc(-c2cnn(C(Cn3cc(F)cn3)c3ccc(-c4c(-n5cnnn5)ccc(Cl)c4F)c[n+]3[O-])c2)cc1 (stereo not shown) [Example P360],0.0366 µM
6,O=c1ccccn1CC(c1ccc(-c2c(-n3cnnn3)ccc(Cl)c2F)c[n+]1[O-])n1cc(-c2ccnc(C(F)(F)F)c2)cn1 (stereo not shown) [Example P358],0.0819 µM
7,"COCc1ccn(CC(c2ccc(-c3c(-n4cnnn4)ccc(Cl)c3F)c[n+]2[O-])n2cc(-c3ccnc(C(F)(F)F)c3)cn2)n1 (single isomer, unassigned) [Example P440]",0.0702 µM
8,"Nc1ccc(-c2cnn(C(CCOC(F)F)c3ccc(-c4c(-n5cnnn5)ccc(Cl)c4F)c[n+]3[O-])c2)c(F)n1 (single isomer, unassigned) [Example P297]",0.0022 µM
9,O=C(O)c1ccc(-c2cnn(C(CCc3ccccc3)c3ccc(-c4cc(Cl)ccc4-n4cnnn4)c[n+]3[O-])c2)cc1 (stereo not shown) [Example P65],0.721 µM
10,O=C(O)c1cccc(-c2cnn(C(CC3CC3)c3ccc(-c4cc(Cl)ccc4-n4cnnn4)c[n+]3[O-])c2)c1 (stereo not shown) [Example P13],0.536 µM
11,"CCC(c1ccc(-c2c(-n3cnnn3)ccc(Cl)c2F)c[n+]1[O-])n1cc(-c2ccc(NC(=O)OC)cc2)cn1 (single isomer, unassigned) [Example P155]",0.0861 µM
12,CN(CC(c1ccc(-c2c(-n3cnnn3)ccc(Cl)c2F)c[n+]1[O-])n1cc(-c2ccnc(F)c2)cn1)C(=O)C(C)(C)C (stereo not shown) [Example P426],0.0536 µM
13,COC(=O)Nc1ccc(-c2cnn(C(Cn3cc(F)cn3)c3ccc(-c4c(-n5cnnn5)ccc(Cl)c4F)c[n+]3[O-])c2)cc1 (stereo not shown) [Example P277],0.0133 µM
14,CCOC(=O)C1CC1CC(c1ccc(-c2cc(Cl)ccc2-n2cnnn2)c[n+]1[O-])n1cc(-c2ccc(C(=O)O)cc2)cn1 (stereo not shown) [Example P67],0.362 µM
15,O=C(O)c1ccc(-c2cnn(C(CC3OCCc4ccccc43)c3ccc(-c4cc(Cl)ccc4-n4cnnn4)c[n+]3[O-])c2)cc1 (stereo not shown) [Example P128],0.475 µM
16,"N#Cc1cc(-c2cnn(C(Cn3cc(F)cn3)c3ccc(-c4c(-n5cnnn5)ccc(Cl)c4F)c[n+]3[O-])c2)ccn1 (single isomer, unassigned) [Example P454]",0.0126 µM
17,O=C1CCCN1CC(c1ccc(-c2c(-n3cnnn3)ccc(Cl)c2F)c[n+]1[O-])n1cc(-c2ccnc(F)c2)cn1 (stereo not shown) [Example P257],0.0071 µM
18,"O=C1OCCN1CC(c1ccc(-c2c(-n3cnnn3)ccc(Cl)c2F)c[n+]1[O-])n1cc(-c2ccnc(C(F)(F)F)c2)cn1 (single isomer, unassigned) [Example P430]",0.038 µM
19,"NC(=O)C1CC1CC(c1ccc(-c2c(-n3cnnn3)ccc(Cl)c2F)c[n+]1[O-])n1cc(-c2cc[n+]([O-])cc2)cn1 (single isomer, unassigned) [Example P283]",0.0745 µM
20,"[O-][n+]1ccc(-c2cnn(C(Cn3cccn3)c3ccc(-c4c(-n5cnnn5)ccc(Cl)c4F)c[n+]3[O-])c2)cc1C(F)F (single isomer, unassigned) [Example P334]",0.029 µM
21,NC(=O)C1CC1CC(c1ccc(-c2cc(Cl)ccc2-n2cnnn2)c[n+]1[O-])n1cc(-c2ccc(C(=O)O)cc2)cn1 (stereo not shown) [Example P114],0.184 µM
22,CCOc1cc(C(CC2CC2)n2cc(-c3cnn(C)c(=O)c3)cn2)[n+]([O-])cc1-c1c(-n2cnnn2)ccc(Cl)c1F (stereo not shown) [Example P137],0.151 µM
23,"O=C(O)c1ccc(-c2cnn(C(CC3CC3C(=O)N3CCC(c4ccccc4)C3)c3ccc(-c4cc(Cl)ccc4-n4cnnn4)c[n+]3[O-])c2)cc1 (single isomer, unassigned) [Example P101]",0.625 µM
24,CN(CC(c1ccc(-c2c(-n3cnnn3)ccc(Cl)c2F)c[n+]1[O-])n1cc(-c2cc[n+]([O-])cc2)cn1)C(=O)c1ccccc1 (stereo not shown) [Example P344],0.175 µM
25,CN(CC(c1ccc(-c2c(-n3cnnn3)ccc(Cl)c2F)c[n+]1[O-])n1cc(-c2ccnc(F)c2)cn1)C(=O)c1ccccc1 (stereo not shown) [Example P424],0.0286 µM
26,[2H]C([2H])([2H])Nc1ccc(-c2cnn(C(CCOC([2H])([2H])[2H])c3ccc(-c4c(-n5cnnn5)ccc(Cl)c4F)c[n+]3[O-])c2)cc1 (stereo not shown) [Example P278],0.11 µM
27,Cn1cncc1-c1cnn(C(CC2CC2)c2ccc(-c3c(-n4cnnn4)ccc(Cl)c3F)c[n+]2[O-])c1 (stereo not shown) [Example P457],0.554 µM
28,"[O-][n+]1cc(-c2c(-n3cnnn3)ccc(Cl)c2F)ccc1C(CC1CC1)n1cc(-c2ccnc(F)c2)cn1 (single isomer, unassigned) [Example P264]",0.0463 µM
29,[O-][n+]1cccc(-c2cnn(C(Cc3ccc(Cl)cc3)c3ccc(-c4cc(Cl)ccc4-n4cnnn4)c[n+]3[O-])c2)c1 (stereo not shown) [Example P151],0.0801 µM
30,Cc1cc(-c2cnn(C(Cn3cccn3)c3ccc(-c4c(-n5cnnn5)ccc(Cl)c4F)c[n+]3[O-])c2)ccn1 (stereo not shown) [Example P310],0.009 µM
